The source of these data is EPA's ToxValDB 9.5 (doi:10.2903/j.efsa.2006.78r).

As usually defined, the NOAEL is the highest dose or exposure tested at which no adverse effect was seen.

Series [1] concerns Apis mellifera. Conditions: acute; duration: 48 hours; oral; unspecified; mortality.
For series [2], the system named is Rattus norvegicus. The note with it: oral, histopathology: nonneoplastic.
Series [3] relates to Lepomis macrochirus.
For series [4], the system named is Cucumis sativus. Conditions: chronic/long-term; other.
Series [5] has as its system Daphnia magna. Conditions: chronic/long-term; duration: 21 days.
Series [6] deals with Tagia sp.
Series [7] relates to Bird.
For series [8], the system named is Typhlodromus pyri. Put plainly: LR50; higher = less toxic. The note with it: not reported; mortality.
Setting [9] is: acute, oral, unspecified, mortality.

Consider `CCCOC(=O)NCCCN(C)C.Cl` [Propamocarb hydrochloride], for which the LD50 in series [1] is > 84 µg/piece, the LD50 under setting [9] was > 1330 mg/kg-day and the LD50 in series [7] (setting [9]) is > 1840 mg/kg-day. In addition, the no-observed-adverse-effect level (NOAEL) in series [2] (chronic, duration: 52 weeks, diet, F) amounted to 29 mg/kg-day; in series [2] (short-term, duration: 28 days, gavage), 100 mg/kg-day. In addition, the LEC (chronic/long-term) stood at 104 mg/kg-day. Besides, the LC50 was > 92 µg/mL in series [3] (acute, duration: 96 hours, mortality); > 660 mg/kg in [6] (acute, duration: 14 days, mortality); > 962 mg/kg-day in series [7] (short-term, oral, feed, mortality). The NOEC in [3] (chronic/long-term, duration: 32 days) was > 6.3 mg/L; in [4] it was 9180 g/ha; in series [5] it was 12.3 mg/L; in series [6] (chronic/long-term, duration: 56 days, reproduction), 362 mg/kg; in series [7] (reproductive) it was 105 mg/kg-day. In addition, in series [8], the LR50 is > 360 g/ha.
